# From patent US6596288B2, “Use of sterols as active ingredient in a cosmetic composition against adiposity” (Codif International SA, priority 2000, dated 2003)
# Experiments:
# [1] = system: human adipocytes; assay: incorporation of [2-14C]-acetate into lipids (LIPOGENESIS) by isolated human adipocytes; format: cell-based
# Method: (§1) In these experiments, adipocytes were isolated from abdominal restorative surgeries sampled in women. The experiment took place the day of the sampling. Fragments of adipose tissues were incubated for 30 minutes at 37° C. in the presence of collagenase, then the isolated adipocytes were washed and taken up in medium MEM buffered with bicarbonate, in the presence of antibiotics (penicillin/streptomycin), glutamine (2 mM), and delipidated bovine serum albumin (0.5%).
# The tests concerning the effect on lipogenesis were then conducted in the following manner.
# Adipocytes (90 μl of ¼ diluted suspension) were incubated for 1 hour, either with a control medium (4 hours), with molecules known to inhibit the neosynthesis of fatty acids (EPA), as for example […], or with previously diluted extracts (added under 100 μl).
# As to the sterols and to the lipidic extracts of plants or algae, they were diluted in mineral oil which has been verified to not inhibit incorporation or extraction of adipocyte lipids. Then, 10 μl of [2^14C]-acetate, 50 μCi/ml, were added, and the samples were either cultivated at 37° C. in the presence of 5% CO2 for 4 additional hours, or immediately frozen at −80° C. (control t0).
# At the times indicated, the samples were frozen at −80° C. The lipids were then extracted according to the method of Bligh and Dyer (extraction methanol/chloroform/water), then dried under nitrogen. The radioactivity incorporated was then counted by liquid scintillation.
# [2] = system: human adipocytes; assay: liberation of NEFA (non-esterified fatty acids) (LIPOLYSIS) by isolated human adipocytes; format: cell-based; conditions: for % Control (NEFA liberation) / Average of the NEFA: 2 hours at 37° C.
# Method: as §1
# As to the tests concerning the effect on lipolysis, they were conducted in the following manner. Adipocytes (540 μl of suspension) were incubated for 2 hours in a water bath at 37° C., with agitation, in the presence of 60 μl of different sterols. The experiments were carried out in triplicate.
# Then, the non-esterified fatty acids (AGNE) released by the adipocytes were determined in the sub-adipocyte media. The values obtained were treated by an analysis of variance (ANOVA) by means of the multiple comparison test of Dunnett. The values were considered as significant when the probability p was less than the threshold of significance 0.05.
# [3] = 0.1 mM (10^−4 M), absence of insulin, 4 h
# [4] = 0.1 mM (10^−4 M), presence of insulin (1 nM), 4 h
# [5] = 1 mM (10^−3 M), absence of insulin, 4 h
# [6] = 1 mM (10^−3 M), presence of insulin (1 nM), 4 h
# [7] = 0.01 mM (10^−5 M), absence of insulin, 4 h
# [8] = 0.01 mM (10^−5 M), presence of insulin (1 nM), 4 h
compound,measurement,setting,value
"CC/C=C\C/C=C\C/C=C\C/C=C\C/C=C\CCCC(=O)O [EPA, eicosapentanoic acid, reference compound]",% control (incorporation of acetate),[1]; [3],18%
same,% inhibition (incorporation of acetate),[1]; [3],82%
same,Average of cpm (incorporation of acetate),[1]; [3],43253 cpm
same,cpm - t0 test (incorporation of acetate),[1]; [3],36788 cpm
same,% control (incorporation of acetate),[1]; [4],38%
same,% inhibition (incorporation of acetate),[1]; [4],62%
same,Average of cpm (incorporation of acetate),[1]; [4],96244 cpm
same,cpm - t0 test (incorporation of acetate),[1]; [4],89779 cpm
same,% control (incorporation of acetate),[1]; [5],3%
same,% inhibition (incorporation of acetate),[1]; [5],97%
same,Average of cpm (incorporation of acetate),[1]; [5],1287 cpm
same,cpm - t0 test (incorporation of acetate),[1]; [5],6373 cpm
same,% control (incorporation of acetate),[1]; [6],3%
same,% inhibition (incorporation of acetate),[1]; [6],97%
same,Average of cpm (incorporation of acetate),[1]; [6],13384 cpm
same,cpm - t0 test (incorporation of acetate),[1]; [6],6919 cpm
"CC[C@H](/C=C/[C@@H](C)[C@H]1CC[C@H]2[C@@H]3CC=C4C[C@@H](O)CC[C@]4(C)[C@H]3CC[C@]12C)C(C)C [Stigmasterol, stigmasterol]",% control (incorporation of acetate),[1]; [7],95%
same,% inhibition (incorporation of acetate),[1]; [7],weak and non-significant
same,Average of cpm (incorporation of acetate),[1]; [7],198442 cpm
same,cpm - t0 test (incorporation of acetate),[1]; [7],191977 cpm
same,% control (incorporation of acetate),[1]; [8],98%
same,% inhibition (incorporation of acetate),[1]; [8],2%
same,Average of cpm (incorporation of acetate),[1]; [8],235529 cpm
same,cpm - t0 test (incorporation of acetate),[1]; [8],229064 cpm
same,% inhibition (incorporation of acetate),"[1]; 0.01 mM (10^−5 M), presence of insulin (1 nM), 4 h, listed as stigmasterol",less than 5%
same,% control (incorporation of acetate),[1]; [3],96%
same,% inhibition (incorporation of acetate),[1]; [3],weak and non-significant
same,Average of cpm (incorporation of acetate),[1]; [3],200467 cpm
same,cpm - t0 test (incorporation of acetate),[1]; [3],194002 cpm
same,% control (incorporation of acetate),[1]; [4],97%
same,% inhibition (incorporation of acetate),[1]; [4],3%
same,Average of cpm (incorporation of acetate),[1]; [4],234524 cpm
same,cpm - t0 test (incorporation of acetate),[1]; [4],228059 cpm
same,% control (incorporation of acetate),[1]; [5],101%
same,% inhibition (incorporation of acetate),[1]; [5],weak and non-significant
same,Average of cpm (incorporation of acetate),[1]; [5],210055 cpm
same,cpm - t0 test (incorporation of acetate),[1]; [5],203590 cpm
same,% control (incorporation of acetate),[1]; [6],94%
same,% inhibition (incorporation of acetate),[1]; [6],6%
same,Average of cpm (incorporation of acetate),[1]; [6],227385 cpm
same,cpm - t0 test (incorporation of acetate),[1]; [6],220920 cpm
same,inhibition at 10 µM,"[1]; Homo sapiens, Adipocyte, 4 h, 0.01 mM (10^−5 M), absence of insulin",5%
same,inhibition at 100 µM,"[1]; Homo sapiens, Adipocyte, 4 h, 0.1 mM (10^−4 M), absence of insulin",4%
same,inhibition at 100 µM,"[1]; Homo sapiens, Adipocyte, 4 h, 0.1 mM (10^−4 M), presence of insulin (1 nM)",< 5%
same,inhibition at 1000 µM,"[1]; Homo sapiens, Adipocyte, 4 h, 1 mM (10^−3 M), absence of insulin",0%
same,inhibition at 1000 µM,"[1]; Homo sapiens, Adipocyte, 4 h, 1 mM (10^−3 M), presence of insulin (1 nM)",< 5%
same,liberation of fatty acids by isolated human adipocytes (conclusion),[2],increases the liberation of fatty acids
same,% Control (NEFA liberation),[2]; 10^−2 M,112%
same,Average of the NEFA,[2]; 10^−2 M,158 µM
same,% Control (NEFA liberation),[2]; 10^−3 M (1 mM),126%
same,Average of the NEFA,[2]; 10^−3 M (1 mM),178 µM
same,% Control (NEFA liberation),[2]; 10^−4 M,133%
same,Average of the NEFA,[2]; 10^−4 M,189 µM
same,% Control (NEFA liberation),[2]; 10^−5 M,128%
same,Average of the NEFA,[2]; 10^−5 M,180 µM
same,% Control (NEFA liberation),[2]; 10^−6 M (1 μM),112%
same,Average of the NEFA,[2]; 10^−6 M (1 μM),158 µM
same,effect on liberation of NEFA,[2]; 10^−6 M and 10^−2 M,did not show significant effect
"CC[C@H](CC[C@@H](C)[C@H]1CC[C@H]2[C@@H]3CC=C4C[C@@H](O)CC[C@]4(C)[C@H]3CC[C@]12C)C(C)C [Beta-sitosterol, beta-sitosterol]",incorporation of acetate by isolated human adipocytes (conclusion),[1],inhibit the incorporation of acetate
same,% control (incorporation of acetate),[1]; [7],96%
same,% inhibition (incorporation of acetate),[1]; [7],4%
same,Average of cpm (incorporation of acetate),[1]; [7],200044 cpm
same,cpm - t0 test (incorporation of acetate),[1]; [7],193579 cpm
same,% inhibition (incorporation of acetate),"[1]; 0.01 mM (10^−5 M), absence of insulin, 4 h, listed as beta-sitosterol",weak and non-significant
same,% control (incorporation of acetate),[1]; [8],89%
same,Average of cpm (incorporation of acetate),[1]; [8],216417 cpm
same,cpm - t0 test (incorporation of acetate),[1]; [8],209952 cpm
same,% control (incorporation of acetate),[1]; [3],95%
same,% inhibition (incorporation of acetate),[1]; [3],5%
same,Average of cpm (incorporation of acetate),[1]; [3],198694 cpm
same,cpm - t0 test (incorporation of acetate),[1]; [3],192229 cpm
same,% inhibition (incorporation of acetate),"[1]; 0.1 mM (10^−4 M), absence of insulin, 4 h, listed as beta-sitosterol",weak and non-significant
same,% control (incorporation of acetate),[1]; [4],93%
same,Average of cpm (incorporation of acetate),[1]; [4],224445 cpm
same,cpm - t0 test (incorporation of acetate),[1]; [4],217980 cpm
same,% control (incorporation of acetate),[1]; [5],84%
same,% inhibition (incorporation of acetate),[1]; [5],16%
same,Average of cpm (incorporation of acetate),[1]; [5],175711 cpm
same,cpm - t0 test (incorporation of acetate),[1]; [5],169246 cpm
same,% control (incorporation of acetate),[1]; [6],83%
same,% inhibition (incorporation of acetate),[1]; [6],17%
same,Average of cpm (incorporation of acetate),[1]; [6],201168 cpm
same,cpm - t0 test (incorporation of acetate),[1]; [6],194703 cpm
same,% Control (NEFA liberation),[2]; 10^−2 M,92%
same,Average of the NEFA,[2]; 10^−2 M,131 µM
same,% Control (NEFA liberation),[2]; 10^−3 M (1 mM),103%
same,Average of the NEFA,[2]; 10^−3 M (1 mM),145 µM
same,% Control (NEFA liberation),[2]; 10^−4 M,96%
same,Average of the NEFA,[2]; 10^−4 M,135 µM
same,% Control (NEFA liberation),[2]; 10^−5 M,107%
same,Average of the NEFA,[2]; 10^−5 M,151 µM
same,% Control (NEFA liberation),[2]; 10^−6 M (1 μM),110%
same,Average of the NEFA,[2]; 10^−6 M (1 μM),156 µM
same,stimulation of lipolysis,"[2]; 10^−6 M, 10^−5 M, 10^−4 M, 10^−3 M and 10^−2 M",did not stimulate lipolysis
